Experimental data taken from the supplement of paper PMC13380429.

Assays:
Settings in all cases: 72 h
Caco-2 [1] = test: cell viability relative to DMSO; higher = less toxic
Calu-3 [2] = test: as above
HepG2 [3] = test: as above
U2OS [4] = test: as above
Vero E6 [5] = test: as above
Caco-2 [6] = test: relative viability EC50 (midpoint between 100% and the lowest measured viability); higher = less toxic
HepG2 [7] = test: as above
U2OS [8] = test: as above
Vero E6 [9] = test: as above
Caco-2 [10] = test: drug sensitivity score (DSS) for viability; higher = more toxic; extreme values may be limits of the assay
Calu-3 [11] = test: as above
HepG2 [12] = test: as above
U2OS [13] = test: as above
Vero E6 [14] = test: as above
Calu-3 [15] = test: relative viability EC50 (midpoint between 100% and the lowest measured viability); higher = less toxic

Row | Compound | cell viability (Caco-2 [1]; 1 nM) | cell viability (Caco-2 [1]; 10 nM) | cell viability (Caco-2 [1]; 100 nM) | cell viability (Caco-2 [1]; 1000 nM) | cell viability (Caco-2 [1]; 10000 nM) | cell viability (Calu-3 [2]; 1 nM) | cell viability (Calu-3 [2]; 10 nM) | cell viability (Calu-3 [2]; 100 nM) | cell viability (Calu-3 [2]; 1000 nM) | cell viability (Calu-3 [2]; 10000 nM) | cell viability (HepG2 [3]; 1 nM) | cell viability (HepG2 [3]; 10 nM) | cell viability (HepG2 [3]; 100 nM) | cell viability (HepG2 [3]; 1000 nM) | cell viability (HepG2 [3]; 10000 nM) | cell viability (U2OS [4]; 1 nM) | cell viability (U2OS [4]; 10 nM) | cell viability (U2OS [4]; 100 nM) | cell viability (U2OS [4]; 1000 nM) | cell viability (U2OS [4]; 10000 nM) | cell viability (Vero E6 [5]; 1 nM) | cell viability (Vero E6 [5]; 10 nM) | cell viability (Vero E6 [5]; 100 nM) | cell viability (Vero E6 [5]; 1000 nM) | cell viability (Vero E6 [5]; 10000 nM) | relative viability EC50 (Caco-2 [6]) | relative viability EC50 (HepG2 [7]) | relative viability EC50 (U2OS [8]) | relative viability EC50 (Vero E6 [9]) | drug sensitivity score (Caco-2 [10]) | drug sensitivity score (Calu-3 [11]) | drug sensitivity score (HepG2 [12]) | drug sensitivity score (U2OS [13]) | drug sensitivity score (Vero E6 [14]) | relative viability EC50 (Calu-3 [15])
1 | Oc1ccc2ccccc2c1Cc1c(O)ccc2ccccc12 [ST-1859] | 90.3% | 92.6% | 97.5% | 101% | 75.8% | 87.4% | 94.8% | 91.9% | 93.9% | 64.6% | 103% | 102% | 93.9% | 90.7% | 86.9% | 95.1% | 101% | 98.2% | 104% | 96.5% | 98.3% | 104% | 102% | 93% | 95.2% | > 10 µM | > 10 µM | > 10 µM | > 10 µM | 0.8 | 2.7 | 0.5 | 0 | 0 | –
2 | Nc1nnc(Sc2ncc([N+](=O)[O-])s2)s1 [SU3327] | 105% | 104% | 103% | 94.2% | 8.8% | 99.7% | 104% | 99.2% | 100% | 62.7% | 100% | 104% | 96.1% | 76.2% | 0% | 103% | 92.7% | 98% | 93.4% | 0.1% | 101% | 101% | 98.8% | 95.6% | 1.4% | 2.66 µM | 1.59 µM | 2.64 µM | 2.83 µM | 5.9 | 1.8 | 9.2 | 6.5 | 6.1 | –
3 | C=CC(=O)Nc1cccc(Oc2nc(Nc3ccc(N4CCN(C)CC4)cc3OC)ncc2Cl)c1 [WZ-4002] | 101% | 95.9% | 94.9% | 94.4% | 83.7% | 94.4% | 97% | 90.8% | 88.6% | 56.9% | 98.1% | 101% | 101% | 104% | 109% | 94.5% | 101% | 98.9% | 99.3% | 93.5% | 98.6% | 102% | 103% | 88.4% | 78.1% | > 10 µM | > 10 µM | > 10 µM | > 10 µM | 0.3 | 3.5 | 0 | 0 | 2 | –
4 | Cc1cc(C)c(NC(=O)N(Cc2ccc3c(c2)Cc2ccccc2-3)C2CCCCCC2)c(C)c1 [YM-750] | 98.6% | 100% | 96.6% | 100% | 55% | 94.1% | 95.3% | 84.9% | 85.6% | 83.3% | 96.2% | 93.5% | 103% | 92.9% | 59.8% | 97.8% | 99.8% | 94.8% | 94.6% | 79.9% | 96.9% | 98.1% | 91.9% | 101% | 88.3% | – | – | > 10 µM | > 10 µM | 2.3 | 2.4 | 3.2 | 1 | 0 | > 10 µM
5 | CC(C[N+](C)(C)C)OC(N)=O (stereo unspecified) [bethanechol] | 121% | 111% | 118% | 97.4% | 104% | – | – | – | – | – | 97.1% | 104% | 92.1% | 106% | 106% | 100% | 98.8% | 98.3% | 95.5% | 95.7% | 99.3% | 91.8% | 103% | 86.8% | 98.2% | > 10 µM | > 10 µM | > 10 µM | > 10 µM | 0 | – | 0 | 0 | 0 | –
6 | C[C@@H]1CCC[C@H](C)N1NC(=O)c1ccc(Cl)c(S(N)(=O)=O)c1 [clopamide] | 94.5% | 104% | 110% | 105% | 104% | 102% | 106% | 104% | 104% | 95.1% | – | – | – | – | – | – | – | – | – | – | 99.4% | 102% | 104% | 99.4% | 105% | > 10 µM | – | – | > 10 µM | 0 | 0 | – | – | 0 | > 10 µM
7 | Cc1onc(-c2ccccc2Cl)c1C(=O)N[C@@H]1C(=O)N2[C@@H]1SC(C)(C)[C@@H]2C(=O)O [cloxacillin] | 102% | 99.7% | 98.5% | 109% | 95.8% | – | – | – | – | – | 107% | 116% | 104% | 90.8% | 109% | – | – | – | – | – | 94.5% | 97.6% | 99.7% | 98.2% | 106% | > 10 µM | > 10 µM | – | > 10 µM | 0 | – | 0 | – | 0 | –
8 | CN1[C@@H]2CC[C@H]1C[C@@H](OC1c3ccccc3CCc3ccccc31)C2 [deptropine] | 92.1% | 97.5% | 96.3% | 92.5% | 83.4% | 98.8% | 107% | 108% | 97.8% | 72.8% | 102% | 96.3% | 102% | 98.6% | 76.7% | 101% | 106% | 99.9% | 103% | 93% | 96.4% | 93.8% | 98.8% | 93.8% | 77.3% | > 10 µM | > 10 µM | > 10 µM | > 10 µM | 0.3 | 1.4 | 1 | 0 | 1.6 | –
9 | CC[C@H](c1ccc(O)cc1)[C@@H](CC)c1ccc(O)cc1 [hexestrol] | 104% | 97.4% | 98.2% | 95% | 101% | – | – | – | – | – | 92.7% | 96.2% | 93.2% | 109% | 116% | 97.4% | 95.2% | 96.7% | 95.7% | 100% | 94% | 100% | 92.2% | 99% | 108% | > 10 µM | > 10 µM | > 10 µM | > 10 µM | 0 | – | 0 | 0 | 0 | –
10 | N#Cc1ccc(C(c2ccc(C#N)cc2)n2cncn2)cc1 [letrozole] | 106% | 107% | 96.2% | 105% | 97.3% | 97.1% | 101% | 101% | 99.1% | 99% | – | – | – | – | – | 104% | 105% | 99.6% | 107% | 101% | 106% | 106% | 114% | 99.9% | 105% | > 10 µM | – | > 10 µM | > 10 µM | 0 | 0 | – | 0 | 0 | > 10 µM
11 | Cc1ccsc1/C=C/C1=NCCCN1C [morantel] | 94.6% | 86% | 72.7% | 94.6% | 84.2% | 94.5% | 111% | 91.1% | 101% | 96.9% | – | – | – | – | – | 98.2% | 104% | 97.2% | 100% | 96.9% | 108% | 104% | 110% | 101% | 96.8% | > 10 µM | – | > 10 µM | > 10 µM | 0 | 0 | – | 0 | 0 | > 10 µM
12 | Cc1ncc([N+](=O)[O-])n1CC(O)CN1CCOCC1 (stereo unspecified) [morinidazole] | 103% | 92% | 100% | 109% | 102% | – | – | – | – | – | 96.3% | 108% | 94.2% | 96.6% | 102% | 101% | 95.1% | 106% | 104% | 101% | 99.7% | 97.1% | 96.3% | 96.7% | 101% | > 10 µM | > 10 µM | > 10 µM | > 10 µM | 0 | – | 0 | 0 | 0 | –
13 | CC(C)(Sc1cc(C(C)(C)C)c(O)c(C(C)(C)C)c1)Sc1cc(C(C)(C)C)c(O)c(C(C)(C)C)c1 [probucol] | 104% | 96.3% | 106% | 102% | 102% | 98.6% | 106% | 99.9% | 103% | 96% | – | – | – | – | – | 104% | 96.1% | 101% | 96.2% | 98.7% | 100% | 101% | 106% | 98.1% | 97.8% | > 10 µM | – | > 10 µM | > 10 µM | 0 | 0 | – | 0 | 0 | > 10 µM
14 | C[C@@H](c1nc(-c2ccc(C#N)cc2)cs1)[C@](O)(Cn1cncn1)c1ccc(F)cc1F [ravuconazole] | 106% | 103% | 99.3% | 84% | 59.3% | – | – | – | – | – | 97.1% | 99.3% | 84.8% | 99.9% | 49.1% | 101% | 105% | 95.9% | 100% | 85.9% | 96.3% | 95.9% | 101% | 102% | 98.6% | – | 3.14 µM | > 10 µM | > 10 µM | 4.2 | – | 2.7 | 0.2 | 0 | –
15 | O=C(O)C(O)Cc1ccc(O)c(O)c1 (stereo unspecified) [sodium-danshensu] | – | – | – | – | – | – | – | – | – | – | 99.5% | 121% | 99.8% | 92% | 104% | 95% | 96.2% | 96.3% | 94.8% | 87.7% | 101% | 102% | 103% | 95.7% | 97.6% | – | > 10 µM | > 10 µM | > 10 µM | – | – | 0 | 0 | 0 | –
16 | C#CC1(OCC(O)CN2CCN(c3cccc(C(F)(F)F)c3)CC2)CCCCC1 (stereo unspecified) [terciprazine] | 102% | 92.2% | 101% | 86.1% | 87% | – | – | – | – | – | 96% | 110% | 110% | 91.1% | 90.9% | 100% | 98.6% | 99% | 96.8% | 95% | 106% | 93.6% | 104% | 99.4% | 87% | > 10 µM | > 10 µM | > 10 µM | > 10 µM | 1 | – | 0 | 0 | 0.1 | –
17 | Cc1cccc(Nc2ccncc2S(=O)(=O)NC(=O)NC(C)C)c1 [torasemide] | 102% | 112% | 96.7% | 103% | 96.2% | 100% | 100% | 96.5% | 110% | 85.6% | – | – | – | – | – | – | – | – | – | – | 105% | 101% | 102% | 99.2% | 103% | > 10 µM | – | – | > 10 µM | 0 | 0.1 | – | – | 0 | > 10 µM
